# Laboratory results: patent publication US9358272B2, “Multicomponent compositions and their uses” (THE ADMINISTRATORS OF THE TULANE EDUCATIONAL FUND, priority 2011, dated 2016)
# “Also recorded” adds a separate entry of the source.
# Legend:
# [1] = tested on: T-ALL HPB-ALL cells; assay: Cell proliferation assay (MTT), HPB-ALL cells; format: cell-based, Human
# Method: (§1) Cell Proliferation Assay (MTT) The cell proliferation assay (Promega, Madison, Wis.) was performed as described in Sun et al., Bioorg Med Chem Lett, 2004, Vol. 14, pp. 2041-2046. The absorbance was measured and recorded at 570 nm by a Victor Plate Reader (PerkinElmer, Boston, Mass.).
# [2] = tested on: Leukemia MOLT-4 cells; assay: Cell proliferation assay (MTT), MOLT-4 cells; format: cell-based; conditions: single agents and combinations
# Method: as §1
# [3] = tested on: ovarian cancer OVCAR8 cells; assay: Cell proliferation assay (MTT), OVCAR8 cells; format: cell-based, Human; conditions: single agents and combinations
# Method: Cell Proliferation Assay (MTT)
# The cell proliferation assay was performed as described previously in Sun et al., Bioorg Med Chem Lett, 2004, Vol. 14, pp. 2041-2046. Briefly, 50 μl aliquots of medium with different concentrations of compounds were added to 96-well plates. All compound concentrations were tested in triplicate. Another 50 μl of the cell stock (1×10^5 cells/ml of media) was dispensed into each test well and the plates were incubated at 37° C. in a CO2 incubator for 3 days. Following the incubation period, 15 μl of the dye solution was added to each well and the plates were then incubated at 37° C. for 4 hours, followed by the addition of 100 μl per well of the solubilization solution. The plates were incubated at 37° C. until the contents in each well became a uniform-colored solution. The absorbance was measured and recorded at 570 nm by a Victor Plate Reader.
# The cell proliferation assay (Promega, Madison, Wis.) was performed as described in Sun et al., Bioorg Med Chem Lett, 2004, Vol. 14, pp. 2041-2046. The absorbance was measured and recorded at 570 nm by a Victor Plate Reader (PerkinElmer, Boston, Mass.).
# [4] = tested on: Jurkat cells; assay: Cell proliferation assay (MTT), Jurkat cells; format: cell-based
# Method: as §1
structure (smiles),measurement,setting,value
"CCCC(CCC)C(=O)O [VPA, valproic acid]","cell growth suppression (MTT), in words",[1],displayed its anti-proliferative ability
same,"cell growth suppression (MTT), in words",[2],displayed its anti-proliferative ability; also recorded: suppressed growth; also recorded: displays its anti-proliferation ability
same,"cell growth suppression (MTT), in words",[3],displayed its anti-proliferative ability; also recorded: displays its anti-proliferation ability
same,"cell growth suppression (MTT), in words",[4],displayed its anti-proliferative ability
